From ChEMBL document CHEMBL1146726, “Linker-modified quinoline derivatives targeting HIV-1 integrase: synthesis and biological activity” (Bioorg Med Chem Lett, 2004)

Tests used:
CCRF-CEM = experiment: Concentration that inhibits 50% of viral particle production in de novo infection assay of CEM cells (ex vivo); Not reached; format: functional, cell-based, Homo sapiens
[1] = test system: Human immunodeficiency virus 1; experiment: Inhibition of particle production in de novo infection assay of HIV infected CEM cells.; format: functional, organism-based; conditions: Human immunodeficiency virus 1, CCRF-CEM
[2] = molecular target: Human immunodeficiency virus type 1 integrase (Human immunodeficiency virus 1, UniProt Q7ZJM1); experiment: In vitro inhibition of recombinant integrase activity in a standard 3'-processing assay.
Chain of Human immunodeficiency virus type 1 integrase (Q7ZJM1 whole entry): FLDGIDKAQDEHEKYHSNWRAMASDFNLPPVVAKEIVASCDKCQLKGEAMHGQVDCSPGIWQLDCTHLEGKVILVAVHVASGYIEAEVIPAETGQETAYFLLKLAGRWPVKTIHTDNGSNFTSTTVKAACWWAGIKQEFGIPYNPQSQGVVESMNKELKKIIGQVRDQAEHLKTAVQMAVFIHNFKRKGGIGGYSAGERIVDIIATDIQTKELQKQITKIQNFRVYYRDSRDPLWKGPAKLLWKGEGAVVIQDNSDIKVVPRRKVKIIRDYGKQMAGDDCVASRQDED

Compound | IC50 (CCRF-CEM) | IC50 [1] | IC50 [2]
O=C(O)c1ccc2ccc(CCc3ccc(O)c(O)c3)nc2c1O | Not reached | – | –
COc1ccc(CNC(=O)Nc2ccc3ccc(C(=O)O)c(O)c3n2)cc1 | – | > 100 µM | > 100 µM
O=C(NNc1ccc([N+](=O)[O-])cc1[N+](=O)[O-])c1ccc2ccc(C(=O)O)c(O)c2n1 | – | > 100 µM | 3 µM
O=C(Nc1ccc(O)c(O)c1)c1ccc2ccc(C(=O)O)c(O)c2n1 | – | 30 µM | 0.9 µM
O=C(O)c1ccc2ccc(/C=C/c3ccc(O)c(O)c3)nc2c1O | – | 1 µM | –
O=C(O)c1ccc2ccc(/C=C/c3cc(O)cc(O)c3)nc2c1O | – | > 100 µM | –
O=C(/C=C(\O)c1ccccc1)c1ccc2ccc(C(=O)O)c(O)c2n1 | – | > 100 µM | 30 µM
O=C(Nc1ccc2ccc(C(=O)O)c(O)c2n1)c1ccccc1 | – | > 100 µM | > 100 µM

Next, values leading:

IC50 (CCRF-CEM) | IC50 [1] | IC50 [2] | Compound
– | 25 µM | 6.5 µM | COc1cc(CNC(=O)c2ccc3ccc(C(=O)O)c(O)c3n2)cc(O)c1O
– | 2 µM | 5 µM | O=C(NCc1ccc(O)c(O)c1)c1ccc2ccc(C(=O)O)c(O)c2n1
– | 55 µM | > 100 µM | O=C(NCc1ccc(O)c(O)c1)Nc1ccc2ccc(C(=O)O)c(O)c2n1
– | 45 µM | > 100 µM | O=C(NNc1ccccc1)c1ccc2ccc(C(=O)O)c(O)c2n1
– | 10 µM | 5 µM | O=C(NCc1ccc(O)cc1O)c1ccc2ccc(C(=O)O)c(O)c2n1
– | > 100 µM | > 100 µM | O=C(Nc1ccc(O)c(O)c1)Nc1ccc2ccc(C(=O)O)c(O)c2n1
– | 40 µM | 5 µM | O=C(NCc1cccc(O)c1O)c1ccc2ccc(C(=O)O)c(O)c2n1
– | 4 µM | 1.5 µM | O=C(NCc1ccc(O)c(O)c1O)c1ccc2ccc(C(=O)O)c(O)c2n1
– | > 100 µM | > 100 µM | O=C(NCc1cc(O)cc(O)c1)c1ccc2ccc(C(=O)O)c(O)c2n1
– | 2 µM | 6.5 µM | COc1cc(NC(=O)c2ccc3ccc(C(=O)O)c(O)c3n2)cc(O)c1O
